Tested on: 6-OHDA lesioned mice
Assay: Unilateral striatal 6-OHDA mouse model, neurorestoration experiment (behaviour and post-mortem)
Type: in vivo, C57BL/6 mice
Procedure: Young adult (9-week old, 25 grams) male C57BL/6 mice were purchased from Charles River Laboratories (Montréal, QC, Canada). Animals were housed 4 per cage under standard conditions with free access to food and water, randomized and handled under the same conditions by one investigator. All experiments were performed in accordance with the Canadian Council on Animal Care and were approved by the Institutional Committee of the Centre Hospitalier de l'Université Laval (CHUL). Throughout the experiment, the health status of all mice included in the study was closely monitored for weight loss or other signs of health-related issues. All efforts were made to minimize animal pain and discomfort.
This protocol was based on the unilateral stereotaxic intra-striatal injection of 6-hydroxydopamine (6-OHDA). Intrastriatal administration of 6-OHDA creates a progressive and retrograde degenerative changes in DA neurons of the substantia nigra (Bjorklund et al., 1997; Costantini et al., 2001). Mice were anaesthetized using isoflurane and placed onto a stereotactic frame adapted for mice. 6-OHDA was dissolved at a concentration of 2 μg/μl in 0.9% saline and 0.02% ascorbic acid and 2 μl was injected in the right striatum at a rate of 0.5 μl/min. The needle was left in place for 3 min after the injection before retraction. The injection was performed using an Hamilton syringe according to the stereotaxic co-ordinates: AP: +0.04 cm, ML: −0.18 cm, DV: −0.31 cm (corresponding to the atlas of Allan P. 2008).
To serve as controls, other mice were subjected to the same surgical procedures, but only 2 μl of solvent (0.9% saline and 0.02% ascorbic acid) was injected in the same coordinates. The study was further divided into 2 distinct experiments: • 1) The neurorescuing effects of cystamine (cystamine dihydrochloride, Sigma, St. Louis, Mo.) in 6-OHDA leisoned mice. For this experiment, the first i.p. injection of 10 mg/kg cystamine was administered 3 days post surgery and the treatment continued daily for 14 days. • 2) The neurorestorative effects of cystamine (cystamine dihydrochloride, Sigma, St. Louis, Mo.) in 6-OHDA lesioned mice. The treatment of cystamine began 3 weeks post surgery, when the dopaminergic (DAergic) lesion is known to be stable and has reached its peak. The treatment was continued daily for 6 weeks.
The effects of cystamine on the 6-OHDA toxicity were studied in the following experimental groups: Group I, Sham+Saline; Group II, 6-OHDA+Saline; Group III; Sham+Cystamine; Group IV, 6-OHDA+Cystamine. In total, 40 mice (n=10 per group) were utilized for each experiment, monitored daily for weight variation, and ultimately sacrificed by perfusion 24 hrs after the last cystamine (or vehicle) injection.
Animals were sacrificed under deep anesthesia with ketamine/xylazine (Vetalar, Bioniche, Belleville, ON/Rompun, Bayer, Toronto, ON). All mice were subjected to intracardiac perfusion with RNAse free 0.1 M phosphate-buffered saline (PBS). After intracardiac perfusion, brains were collected and the posterior brain of each mice, comprising the entire mesencephalon, was post-fixed in 4% PFA for additional immunohistochemistry and in situ hybridization analyses. The anterior brain, comprising the right and left striatum, was snap-frozen and used for HPLC and WB analyses.
Catecholamine quantification by HPLC, TH immunohistochemistry and in situ hybridization for Nurr1 and DAT were conducted as described in Example 1.
The loss of DAergic neurons was determined by stereological counts of TH-immunoreactive cells (identifiable somas) under bright-field illumination. Every 10th section through the SNc was analyzed using Stereo investigator software (MicroBrighffield, Colchester, Vt., USA) attached to an E800 Nikon microscope (Nikon Canada Inc., Mississauga, ON, Canada). After delineation of the SNc at low magnification (4× objective), a point grid was overlaid onto each section. […]

NCCSSCCN [cystamine, Cystamine] was tested, and the “restoration of DA content in the lesioned striatum” value (10 mg/kg daily for 6 weeks from 3 weeks post-lesion) was “did not significantly restore DA content”, the “cylinder test, limb-use asymmetry (percentage of contralateral contacts)” value (10 mg/kg daily for 6 weeks from 3 weeks post-lesion, 6 and 9 weeks post-lesion) was “asymmetry was not visible” and the apomorphine-induced contralateral rotations (10 mg/kg daily for 6 weeks from 3 weeks post-lesion, 6 and 9 weeks post-surgery) was “significantly attenuated by the cystamine treatment”. The “decrease of striatal DA levels measured by HPLC” value (6-OHDA lesioned mice, 10 mg/kg daily for 6 weeks from 3 weeks post-lesion) was 84%, the “decrease in the total number of TH-positive neurons in the SNpc” value (6-OHDA+cystamine vs sham+cystamine, 10 mg/kg daily for 6 weeks from 3 weeks post-lesion) was 65% and the DA turnover (vs 6-OHDA mice treated with saline) was “strong tendency to normalise the DA turnover”.

— patent US20140073694A1, “CYSTAMINE ANALOGUES FOR THE TREATMENT OF PARKINSON'S DISEASE” (UNIVERSITE LAVAL, priority 2011, published 2014)
